PubChem BioAssay (NCI)
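Compound exposure: 48 hours, 5 concentrations, 96-well plates. Here, GI50 denotes the concentration required for 50% inhibition of growth. TGI: concentration producing complete growth inhibition.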

How the values were obtained:
Assay in all cases: NCI tumour cell line growth inhibition, 48 h
HOP-62 NSCLC = test system: HOP-62 NSCLC
T-47D breast = test system: T-47D breast
MOLT-4 leukemia = test system: MOLT-4 leukemia
A549 NSCLC = test system: A549 NSCLC
ACHN renal = test system: ACHN renal
M14 melanoma = test system: M14 melanoma
SW-620 colon = test system: SW-620 colon
COLO 205 colon = test system: COLO 205 colon
DU-145 prostate = test system: DU-145 prostate
IGROV1 ovarian = test system: IGROV1 ovarian

Compound	GI50 (HOP-62 NSCLC)	TGI (HOP-62 NSCLC)	GI50 (T-47D breast)	TGI (T-47D breast)	GI50 (MOLT-4 leukemia)	TGI (MOLT-4 leukemia)	GI50 (A549 NSCLC)	TGI (A549 NSCLC)	GI50 (ACHN renal)	TGI (ACHN renal)	GI50 (M14 melanoma)	TGI (M14 melanoma)	GI50 (SW-620 colon)	TGI (SW-620 colon)	GI50 (COLO 205 colon)	TGI (COLO 205 colon)	GI50 (DU-145 prostate)	TGI (DU-145 prostate)	GI50 (IGROV1 ovarian)	TGI (IGROV1 ovarian)
COC(=O)c1cc(NC(=O)CN(CCN(CC(=O)O)CC(=O)Nc2ccc(O)c(C(=O)OC)c2)CC(=O)O)ccc1O	42.3 µM	> 100 µM	32.7 µM	> 100 µM	28.5 µM	> 100 µM	64.8 µM	> 100 µM	36.7 µM	> 100 µM	41.9 µM	> 100 µM	74.9 µM	> 100 µM	72 µM	> 100 µM	31.9 µM	> 100 µM	> 100 µM	> 100 µM
Cc1cccc2c1ccc1c3occ(C)c3c(=O)oc21	> 100 µM	> 100 µM	9.65 µM	> 100 µM	51.5 µM	> 100 µM	> 100 µM	> 100 µM	> 100 µM	> 100 µM	> 100 µM	> 100 µM	> 100 µM	> 100 µM	> 100 µM	> 100 µM	> 100 µM	> 100 µM	> 100 µM	> 100 µM
CC#CC(=O)N[C@H]1CCCN(c2c(F)cc(C(N)=O)c3[nH]c(C)c(C)c23)C1	24.9 µM	> 100 µM	13.6 µM	44.3 µM	18.8 µM	93.6 µM	21.3 µM	70.2 µM	16.4 µM	42.8 µM	18.6 µM	42 µM	19.8 µM	39 µM	21.3 µM	47 µM	26.1 µM	88.5 µM	14 µM	31.6 µM
CC(=O)Nc1ccc(S(=O)(=O)c2ccc(NC(C)=O)cc2)cc1	> 100 µM	> 100 µM	> 100 µM	> 100 µM	> 100 µM	> 100 µM	> 100 µM	> 100 µM	> 100 µM	> 100 µM	> 100 µM	> 100 µM	> 100 µM	> 100 µM	> 100 µM	> 100 µM	> 100 µM	> 100 µM	> 100 µM	> 100 µM
O=C1CCCC(=O)C1C(=O)c1ccc(C(F)(F)F)cc1[N+](=O)[O-]	> 100 µM	> 100 µM	> 100 µM	> 100 µM	> 100 µM	> 100 µM	> 100 µM	> 100 µM	> 100 µM	> 100 µM	> 100 µM	> 100 µM	> 100 µM	> 100 µM	> 100 µM	> 100 µM	> 100 µM	> 100 µM	> 100 µM	> 100 µM
O=[N+]([O-])c1ccc(NN=C2c3ccccc3Cc3ccccc32)c([N+](=O)[O-])c1	–	> 100 µM	–	> 100 µM	–	> 100 µM	–	> 100 µM	–	> 100 µM	–	> 100 µM	–	> 100 µM	–	> 100 µM	–	> 100 µM	–	> 100 µM
